According to PubChem BioAssay AID1963434 (Molecular Pharmacology Branch, DTP, NCI, 2024):

Test system: 755483-174-R-J1-PDC complex spheroid growth, percent test/control
Assay: Anticancer human tumor 755483-174-R-J1-PDC patient-derived rhabdomyosarcoma cell line growth inhibition [Asc]
Details: for IC50: curve of first compound; for viability, T/C: stronger effect = lower value
In short: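 Complex solid-tumor spheroids incorporating human endothelial and mesenchymal stem cells received single agents or combinations over half-log dilution ranges anchored to clinical Cmax.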

[1] = second compound 0.1 µM, first compound 0.00316 µM
[2] = second compound 0.1 µM, first compound 0.01 µM
[3] = second compound 0.1 µM, first compound 0.0316 µM
[4] = second compound 0.1 µM, first compound 0.1 µM
[5] = second compound 0.316 µM, first compound 0.00316 µM
[6] = second compound 0.316 µM, first compound 0.01 µM
[7] = second compound 0.316 µM, first compound 0.0316 µM
[8] = second compound 0.316 µM, first compound 0.1 µM
[9] = second compound 1 µM, first compound 0.00316 µM
[10] = second compound 1 µM, first compound 0.01 µM
[11] = second compound 1 µM, first compound 0.0316 µM
[12] = second compound 1 µM, first compound 0.1 µM
[13] = second compound 3.16 µM, first compound 0.00316 µM
[14] = second compound 3.16 µM, first compound 0.01 µM
[15] = second compound 3.16 µM, first compound 0.0316 µM
[16] = second compound 3.16 µM, first compound 0.1 µM
[17] = second compound 10 µM, first compound 0.00316 µM
[18] = second compound 10 µM, first compound 0.01 µM
[19] = second compound 10 µM, first compound 0.0316 µM
[20] = second compound 10 µM, first compound 0.1 µM
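Also: spheroids exposed to compounds for seven days before readout.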

## COc1c(OCCCN2CCOCC2)ccc2c3n(c(=NC(=O)c4cnc(N)nc4)nc12)CCN3 + Cc1c(S(C)(=O)=O)c(-c2cc(F)cc(N3CCN(c4ccc(NS(=O)(=O)c5ccc(NC(CCN6CCC(C(=O)OCCCP(=O)(O)O)CC6)CSc6ccccc6)c(S(=O)(=O)C(F)(F)F)c5)cc4)CC3)c2)c(-c2ccc(Cl)cc2)n1C(C)C
Second compound 0.1 µM
  IC50: < 3.16 nM
Second compound 0.316 µM
  IC50: < 3.16 nM
Second compound 1 µM
  IC50: < 3.16 nM
Second compound 3.16 µM
  IC50: < 3.16 nM
Second compound 10 µM
  IC50: < 3.16 nM
[1]
  viability, T/C: 39.6%
[2]
  viability, T/C: 48%
[3]
  viability, T/C: 33.2%
[4]
  viability, T/C: 15.8%
Second compound 0.1 µM, first compound 0.316 µM
  viability, T/C: 6.56%
Second compound 0.1 µM, first compound 1 µM
  viability, T/C: 4%
[5]
  viability, T/C: 32.8%
[6]
  viability, T/C: 28.1%
[7]
  viability, T/C: 31.9%
[8]
  viability, T/C: 13%
Second compound 0.316 µM, first compound 0.316 µM
  viability, T/C: 5.57%
Second compound 0.316 µM, first compound 1 µM
  viability, T/C: 2.62%
[9]
  viability, T/C: 34.3%
[10]
  viability, T/C: 31.4%
[11]
  viability, T/C: 18.6%
[12]
  viability, T/C: 17.4%
Second compound 1 µM, first compound 0.316 µM
  viability, T/C: 5.22%
Second compound 1 µM, first compound 1 µM
  viability, T/C: 2.16%
[13]
  viability, T/C: 26.5%
[14]
  viability, T/C: 29.1%
[15]
  viability, T/C: 20.2%
[16]
  viability, T/C: 8.47%
Second compound 3.16 µM, first compound 0.316 µM
  viability, T/C: 5.03%
Second compound 3.16 µM, first compound 1 µM
  viability, T/C: 1.66%
[17]
  viability, T/C: 40.9%
[18]
  viability, T/C: 25.5%
[19]
  viability, T/C: 19.1%
[20]
  viability, T/C: 12.1%
Second compound 10 µM, first compound 0.316 µM
  viability, T/C: 4.21%
Second compound 10 µM, first compound 1 µM
  viability, T/C: 1.7%

## NC(=O)C(=Cn1cnc(-c2cc(C(F)(F)F)cc(C(F)(F)F)c2)n1)c1cncnc1 + Cc1c(S(C)(=O)=O)c(-c2cc(F)cc(N3CCN(c4ccc(NS(=O)(=O)c5ccc(NC(CCN6CCC(C(=O)OCCCP(=O)(O)O)CC6)CSc6ccccc6)c(S(=O)(=O)C(F)(F)F)c5)cc4)CC3)c2)c(-c2ccc(Cl)cc2)n1C(C)C
Second compound 0.1 µM
  IC50: < 0.949 nM
Second compound 0.316 µM
  IC50: < 0.949 nM
Second compound 1 µM
  IC50: < 0.949 nM
Second compound 3.16 µM
  IC50: < 0.949 nM
Second compound 10 µM
  IC50: < 0.949 nM
Second compound 0.1 µM, first compound 0.000949 µM
  viability, T/C: 47.5%
Second compound 0.1 µM, first compound 0.003 µM
  viability, T/C: 36.2%
Second compound 0.1 µM, first compound 0.00949 µM
  viability, T/C: 22.7%
Second compound 0.1 µM, first compound 0.03 µM
  viability, T/C: 6.11%
Second compound 0.1 µM, first compound 0.0949 µM
  viability, T/C: 16.4%
Second compound 0.1 µM, first compound 0.3 µM
  viability, T/C: 4.19%
Second compound 0.316 µM, first compound 0.000949 µM
  viability, T/C: 47%
Second compound 0.316 µM, first compound 0.003 µM
  viability, T/C: 31.2%
Second compound 0.316 µM, first compound 0.00949 µM
  viability, T/C: 12.9%
Second compound 0.316 µM, first compound 0.03 µM
  viability, T/C: 7.11%
Second compound 0.316 µM, first compound 0.0949 µM
  viability, T/C: 2.26%
Second compound 0.316 µM, first compound 0.3 µM
  viability, T/C: 1.84%
Second compound 1 µM, first compound 0.000949 µM
  viability, T/C: 34%
Second compound 1 µM, first compound 0.003 µM
  viability, T/C: 38.8%
Second compound 1 µM, first compound 0.00949 µM
  viability, T/C: 13.9%
Second compound 1 µM, first compound 0.03 µM
  viability, T/C: 7.14%
Second compound 1 µM, first compound 0.0949 µM
  viability, T/C: 3.61%
Second compound 1 µM, first compound 0.3 µM
  viability, T/C: 2.25%
Second compound 3.16 µM, first compound 0.000949 µM
  viability, T/C: 30.6%
Second compound 3.16 µM, first compound 0.003 µM
  viability, T/C: 25.2%
Second compound 3.16 µM, first compound 0.00949 µM
  viability, T/C: 14.1%
Second compound 3.16 µM, first compound 0.03 µM
  viability, T/C: 5.04%
Second compound 3.16 µM, first compound 0.0949 µM
  viability, T/C: 3%
Second compound 3.16 µM, first compound 0.3 µM
  viability, T/C: 4.14%
Second compound 10 µM, first compound 0.000949 µM
  viability, T/C: 24.6%
Second compound 10 µM, first compound 0.003 µM
  viability, T/C: 33.5%
Second compound 10 µM, first compound 0.00949 µM
  viability, T/C: 13.9%
Second compound 10 µM, first compound 0.03 µM
  viability, T/C: 3.72%
Second compound 10 µM, first compound 0.0949 µM
  viability, T/C: 1.94%
Second compound 10 µM, first compound 0.3 µM
  viability, T/C: 0.83%

## NC1CCC(NC2CC2c2ccccc2)CC1 (stereo not given) + Cc1c(S(C)(=O)=O)c(-c2cc(F)cc(N3CCN(c4ccc(NS(=O)(=O)c5ccc(NC(CCN6CCC(C(=O)OCCCP(=O)(O)O)CC6)CSc6ccccc6)c(S(=O)(=O)C(F)(F)F)c5)cc4)CC3)c2)c(-c2ccc(Cl)cc2)n1C(C)C
Second compound 0.1 µM
  IC50: < 0.316 nM
Second compound 0.316 µM
  IC50: < 0.316 nM
Second compound 1 µM
  IC50: < 0.316 nM
Second compound 3.16 µM
  IC50: < 0.316 nM
Second compound 10 µM
  IC50: < 0.316 nM
Second compound 0.1 µM, first compound 0.000316 µM
  viability, T/C: 36.7%
Second compound 0.1 µM, first compound 0.001 µM
  viability, T/C: 31.1%
[1]
  viability, T/C: 37.3%
[2]
  viability, T/C: 37.3%
[3]
  viability, T/C: 33.7%
[4]
  viability, T/C: 37%
Second compound 0.316 µM, first compound 0.000316 µM
  viability, T/C: 39.7%
Second compound 0.316 µM, first compound 0.001 µM
  viability, T/C: 42.1%
[5]
  viability, T/C: 31.7%
[6]
  viability, T/C: 26.7%
[7]
  viability, T/C: 35.9%
[8]
  viability, T/C: 30.5%
Second compound 1 µM, first compound 0.000316 µM
  viability, T/C: 27.6%
Second compound 1 µM, first compound 0.001 µM
  viability, T/C: 19.3%
[9]
  viability, T/C: 31.9%
[10]
  viability, T/C: 31.5%
[11]
  viability, T/C: 31.1%
[12]
  viability, T/C: 39.5%
Second compound 3.16 µM, first compound 0.000316 µM
  viability, T/C: 25.2%
Second compound 3.16 µM, first compound 0.001 µM
  viability, T/C: 32.8%
[13]
  viability, T/C: 22.7%
[14]
  viability, T/C: 35.9%
[15]
  viability, T/C: 24.9%
[16]
  viability, T/C: 35.4%
Second compound 10 µM, first compound 0.000316 µM
  viability, T/C: 20.4%
Second compound 10 µM, first compound 0.001 µM
  viability, T/C: 20.4%
[17]
  viability, T/C: 21.2%
[18]
  viability, T/C: 20.6%
[19]
  viability, T/C: 24.5%
[20]
  viability, T/C: 27.6%
